Columns and labels:
[1] = biological target: T1, 17-beta-hydroxysteroid dehydrogenase type 1 (Homo sapiens) (UniProt P14061); assay: Compound was tested for the inhibition of 17-beta-hydroxysteroid dehydrogenase type 1(17-beta-HSD type 1) at 1 uM concentration
T1 sequence (whole entry): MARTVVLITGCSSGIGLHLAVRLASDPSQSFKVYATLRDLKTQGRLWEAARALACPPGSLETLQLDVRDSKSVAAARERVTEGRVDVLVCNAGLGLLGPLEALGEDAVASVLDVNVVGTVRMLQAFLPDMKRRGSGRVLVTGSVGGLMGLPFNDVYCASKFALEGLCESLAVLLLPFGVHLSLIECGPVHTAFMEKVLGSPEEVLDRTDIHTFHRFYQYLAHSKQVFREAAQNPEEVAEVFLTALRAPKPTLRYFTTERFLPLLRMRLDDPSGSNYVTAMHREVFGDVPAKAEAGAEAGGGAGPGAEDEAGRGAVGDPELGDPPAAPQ

[2] = biological target: T1, 17-beta-hydroxysteroid dehydrogenase type 1 (Homo sapiens); assay: Compound was tested for the inhibition of 17-beta-hydroxysteroid dehydrogenase type 1(17-beta-HSD type 1) at 10 uM concentration
[3] = biological target: T2, 17-beta-hydroxysteroid dehydrogenase type 1 (Homo sapiens, UniProt P14061); assay: Compound was tested for the inhibition of 17-beta-hydroxysteroid dehydrogenase type 1(17-beta-HSD type 1)
T2 sequence (P14061 whole entry): T1 sequence (whole entry)

| Structure (SMILES) | inhibition [1] | inhibition [2] | IC50 [3] |
| --- | --- | --- | --- |
| C=CC[C@@H]1C[C@H]2[C@@H]3CCc4cc(O)ccc4[C@H]3CC[C@]2(C)[C@H]1O | 26% | 63% | – |
| C[C@]12CC[C@@H]3c4ccc(O)cc4CC[C@H]3[C@@H]1C[C@@H](CCCBr)[C@@H]2O | 70% | 94% | 460 nM |
| C[C@]12CC[C@@H]3c4ccc(O)cc4CC[C@H]3[C@@H]1C[C@@H](CCCI)[C@@H]2O | 68% | 92% | 420 nM |
| C[C@]12CC[C@@H]3c4ccc(O)cc4CC[C@H]3[C@@H]1C[C@@H](CCCCl)[C@@H]2O | 88% | 92% | 1000 nM |
| C[C@]12CC[C@@H]3c4ccc(O)cc4CC[C@H]3[C@@H]1C[C@@H](CCCO)[C@@H]2O | 17% | 57% | – |
| C[C@]12CC[C@@H]3c4ccc(O)cc4CC[C@H]3[C@@H]1C[C@@H](CCCSC#N)[C@@H]2O | 82% | 95% | 1150 nM |
| C[C@]12CC[C@@H]3c4ccc(O)cc4CC[C@H]3[C@@H]1C[C@@H](CCCF)[C@@H]2O | 49% | 81% | 4300 nM |
| CCC[C@@H]1C[C@H]2[C@@H]3CCc4cc(O)ccc4[C@H]3CC[C@]2(C)[C@H]1O | 29% | 69% | – |

Source: ChEMBL document CHEMBL1127765, “16-propyl derivatives of estradiol as inhibitors of 17-hydroxysteroid dehydrogenase type 1” (Bioorg Med Chem Lett, 1994)
